Patent US8476264B2, “N-(3-(2-amino-6,6-difluoro-4,4A,5,6,7,7A-hexahydro-cyclopenta[E][1,3]oxazin-4-yl)-phenylamides as BACE1 inhibitors” (Hoffmann-La Roche Inc., priority 2011, dated 2013)

Assays:
[1] = molecular target: T1, recombinant human cathepsin E (Homo sapiens, UniProt P14091); experiment: Cathepsin E fluorescent substrate kinetic assay; type: biochemical; conditions: pH 4.5, substrate MR121-[…]
T1 construct: purchased R&D Systems
T1 sequence (P14091 54-396): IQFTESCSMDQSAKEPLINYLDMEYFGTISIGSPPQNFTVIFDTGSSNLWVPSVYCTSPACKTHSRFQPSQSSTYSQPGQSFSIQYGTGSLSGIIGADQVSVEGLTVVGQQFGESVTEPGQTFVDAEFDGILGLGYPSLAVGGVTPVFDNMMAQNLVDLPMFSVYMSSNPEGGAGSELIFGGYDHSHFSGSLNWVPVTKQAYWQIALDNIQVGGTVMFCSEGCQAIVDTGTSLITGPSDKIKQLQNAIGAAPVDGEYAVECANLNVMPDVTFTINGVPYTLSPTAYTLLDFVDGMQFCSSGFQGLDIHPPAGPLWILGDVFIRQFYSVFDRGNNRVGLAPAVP
Text: Cathepsin D and Cathepsin E Fluorescent Substrate Kinetic Assays
The MR121 fluorescence assays described below are based on the fact that MR121 forms a non-fluorescent ground state complex with tryptophan. In solution this formation occurs at millimolar concentrations of tryptophan. The mechanism can be used to design a generic biochemical assay for proteases. A substrate peptide is labeled at the N-terminus with tryptophan and at the C-terminus with the fluorophore MR121 (for cathepsin D the 10 amino acid peptide […]-MR121 was used; for cathepsin E, MR121-[…] was used). In absence of protease activity, the substrates remain intact and the MR121 fluorescence is reduced by the high local Trp-concentration. If the substrates are cleaved by the enzymes the MR121 fluorescence is recovered.
The fluorescent substrate cathepsin D and cathepsin E kinetic assays were performed at room temperature in 384-well microtiter plates (black with clear flat bottom, non binding surface plates from Corning) in a final volume of 51 μl. The test compounds were serially diluted in DMSO (15 concentrations, ⅓ dilution steps) and 1 μl of diluted compounds were mixed for 10 min with 40 μl of cathepsin D (from human liver, Calbiochem) diluted in assay buffer (100 mM sodium acetate, 0.05% BSA, pH 5.5; final concentration: 200 nM) or with 40 μl of recombinant human cathepsin E (R&D Systems) diluted in assay buffer (100 mM sodium acetate, 0.05% BSA, pH 4.5; final concentration: 0.01 nM). After addition of 10 μl of the cathepsin D substrate […]-MR121 diluted in cathepsin D assay buffer (final concentration: 300 nM) or […] cathepsin E substrate MR121-[…] diluted in cathepsin E assay buffer (final concentration: 300 nM), the plates were strongly shaken for 2 minutes. The enzymatic reaction was followed in a plate: vision reader (Perkin Elmer) (excitation wavelength: 630 nm; emission: 695 nm) for at least 30 minutes in a kinetic measurement detecting an increase of MR121 fluorescence during the reaction time. The slope in the linear range of the kinetic was calculated and the IC50 of the test compounds were determined using a four parameter equation for curve fitting.

CYP3A4 = molecular target: T2, CYP3A4 (Homo sapiens, UniProt P08684); experiment: CYP inhibition assay, CYP3A4; type: in vitro ADME; conditions: human liver microsomes, midazolam 1' hydroxylase; read-out: CYP IC50 3A4
T2 construct: 0.2 mg/ml pooled human liver microsomes; from tissue; host or cells: pooled human liver microsomes
Protocol: (§1) Inhibition of cytochromes P450 (CYPs) 2C9, 2D6 and 3A4 was assessed using human liver microsomes and CYP-selective substrate metabolism reactions. 50 μl incubations were made up containing (finally) 0.2 mg/ml pooled human liver microsomes, 5 μM substrate (diclofenac for CYP2C9 [4′ hydroxylase], dextromethorphan for CYP2D6 [O-demethylase] or midazolam for CYP3A4 [1′ hydroxylase]), 0.25 μL DMSO containing test inhibitor and NADPH regenerating system. Test inhibitor concentrations of 50, 16.7, 5.6, 1.9, 0.6 and 0.2 μM were assessed in singlicate. Incubations were pre-warmed to 37° C. for 10 minutes before initiation by addition of NADPH regenerating system. Incubations were quenched after 5 minutes (20 minutes for dextromethorphan) by addition of 50 μl cold acetonitrile containing 20 ng/ml 4-OH-diclofenac-13C6, 20 ng/mL dextrorphan-D3 and 20 ng/mL 1-OH-midazolam-D4. Quenched incubates were stored at −20° C. for at least 1 hour before centrifugation (20,000×g, 20 minutes). Supernatants were removed and diluted 1:1 with water prior to analysis using a RapidFire sample injector system and API4000 mass spectrometer. Peak areas for substrate, metabolite and stable-labelled metabolite standard were determined using MS/MS. The peak area ratios between the metabolite generated by the enzymatic reaction and the internal standard were used in subsequent calculations. The percentage of (DMSO) control activity was calculated for each incubate and IC50 values estimated by non-linear regression. Sulfaphenazole, quinidine or ketoconazole were tested in each CYP2C9, CYP2D6 or CYP3A4 inhibition experiment, respectively, to ensure assay sensitivity and reproducibility. (Validated assays for human cytochrome P450 activities, R. L. Walsky and R. S. Obach, Drug Metabolism and Disposition 32: 647-660, 2004. and S. Fowler and H. Zhang, The AAPS Journal, Vol. 10, No. 2, 410-424, 2008.)

CYP2D6 = molecular target: T3, CYP2D6 (Homo sapiens, UniProt P10635); experiment: CYP inhibition assay, CYP2D6; type: in vitro ADME; conditions: human liver microsomes, dextromethorphan O-demethylase; read-out: CYP IC50 2D6
T3 construct: 0.2 mg/ml pooled human liver microsomes; from tissue; host or cells: pooled human liver microsomes
Protocol: as §1

T2 sequence (P08684 whole entry): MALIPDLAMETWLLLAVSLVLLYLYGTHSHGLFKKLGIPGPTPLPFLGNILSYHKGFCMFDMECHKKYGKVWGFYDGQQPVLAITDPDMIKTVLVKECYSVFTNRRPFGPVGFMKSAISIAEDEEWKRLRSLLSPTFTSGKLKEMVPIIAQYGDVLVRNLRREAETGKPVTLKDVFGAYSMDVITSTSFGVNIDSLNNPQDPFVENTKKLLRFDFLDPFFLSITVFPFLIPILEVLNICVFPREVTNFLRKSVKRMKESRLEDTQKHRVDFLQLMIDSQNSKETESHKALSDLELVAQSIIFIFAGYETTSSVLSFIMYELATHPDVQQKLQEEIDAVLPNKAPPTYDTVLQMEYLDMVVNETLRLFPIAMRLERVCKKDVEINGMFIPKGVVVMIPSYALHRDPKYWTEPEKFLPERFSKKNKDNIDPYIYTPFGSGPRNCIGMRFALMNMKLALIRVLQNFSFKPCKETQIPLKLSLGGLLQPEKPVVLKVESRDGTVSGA
T3 sequence (P10635 whole entry): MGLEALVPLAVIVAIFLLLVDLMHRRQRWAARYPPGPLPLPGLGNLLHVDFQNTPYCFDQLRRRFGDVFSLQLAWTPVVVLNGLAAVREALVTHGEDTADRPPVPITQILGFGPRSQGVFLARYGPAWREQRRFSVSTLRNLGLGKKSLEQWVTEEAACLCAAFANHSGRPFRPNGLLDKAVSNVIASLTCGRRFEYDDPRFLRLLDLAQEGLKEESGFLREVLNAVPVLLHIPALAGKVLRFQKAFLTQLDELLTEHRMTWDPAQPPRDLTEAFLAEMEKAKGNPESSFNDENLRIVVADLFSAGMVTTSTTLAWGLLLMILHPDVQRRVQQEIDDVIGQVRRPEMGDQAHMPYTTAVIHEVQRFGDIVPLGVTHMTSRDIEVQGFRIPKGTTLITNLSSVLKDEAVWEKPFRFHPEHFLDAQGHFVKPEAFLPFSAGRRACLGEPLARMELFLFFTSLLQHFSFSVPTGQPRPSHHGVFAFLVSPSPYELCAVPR

| IC50 [1] [µM] | IC50 (CYP3A4) [µM] | IC50 (CYP2D6) [µM] | SMILES |
| --- | --- | --- | --- |
| > 200 | > 10 | > 10 | N#Cc1ccc(C(=O)Nc2ccc(F)c([C@@]3(CF)N=C(N)O[C@@H]4CC(F)(F)C[C@@H]43)c2)nc1 [Example 3, 5-Cyano-pyridine-2-carboxylic acid [(S)-3-((1R,2R)-2-amino-6,6-difluoro-4-fluoromethyl-4,4a,5,6,7,7a-hexahydro-cyclopenta[e][1,3]oxazin-4-yl)-4-fluoro-phenyl]-amide] |
| 149 | > 10 | > 10 | NC1=N[C@](CF)(c2cc(NC(=O)c3ccc(F)cn3)ccc2F)[C@H]2CC(F)(F)C[C@H]2O1 [Example 7, 5-Fluoro-pyridine-2-carboxylic acid [(S)-3-((1R,2R)-2-amino-6,6-difluoro-4-fluoromethyl-4,4a,5,6,7,7a-hexahydro-cyclopenta[e][1,3]oxazin-4-yl)-4-fluoro-phenyl]-amide] |
| > 200 | > 10 | > 10 | NC1=N[C@](CF)(c2cc(NC(=O)c3cnc(C(F)F)cn3)ccc2F)[C@H]2CC(F)(F)C[C@H]2O1 [Example 24, 5-Difluoromethyl-pyrazine-2-carboxylic acid [(S)-3-((1R,2R)-2-amino-6,6-difluoro-4-fluoromethyl-4,4a,5,6,7,7a-hexahydro-cyclopenta[e][1,3]oxazin-4-yl)-4-fluoro-phenyl]-amide] |
| > 200 | > 10 | > 10 | N#Cc1ccc(C(=O)Nc2ccc(F)c([C@@]3(C(F)F)N=C(N)O[C@@H]4CC(F)(F)C[C@@H]43)c2)nc1 [Example 36, 5-Cyano-pyridine-2-carboxylic acid [(S)-3-((1R,2R)-2-amino-4-difluoromethyl-6,6-difluoro-4,4a,5,6,7,7a-hexahydro-cyclopenta[e][1,3]oxazin-4-yl)-4-fluoro-phenyl]-amide] |
| > 200 | > 10 | > 10 | COc1cnc(C(=O)Nc2ccc(F)c([C@@]3(C(F)F)N=C(N)O[C@@H]4CC(F)(F)C[C@@H]43)c2)cn1 [Example 42, 5-Methoxy-pyrazine-2-carboxylic acid [(S)-3-((1R,2R)-2-amino-4-difluoromethyl-6,6-difluoro-4,4a,5,6,7,7a-hexahydro-cyclopenta[e][1,3]oxazin-4-yl)-4-fluoro-phenyl]-amide] |
